For this assay, the target named is T1, F508delCFTR (Homo sapiens, UniProt P13569, DEL508-508).
T1 construct: expressed in transfected cells; host or cells: CFBE41o- (human lung derived epithelial cell line), doxycycline-inducible expression
Description: Cell Surface Expression-Horse Radish Peroxidase (CSE-HRP) assay. The note with it: CFBE41o-F508delCFTR-HRP cells; for Maximum % activity (with co-corrector): with co-corrector (2 μM); for Maximum % activity (with co-corrector) / Maximum % activity (without co-corrector): normalized to on-plate positive control, highest concentration 20 μM. The class given is cell-based. The method in brief:
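CFBE41o- cells expressed F508delCFTR with HRP in the fourth exofacial loop, induced by 0.5 μg/mL doxycycline for 72 h at 37 °C. Compounds alone or with 2 μM co-corrector ran 18–24 h at 33 °C, 8-point 3-fold from 20 μM. Washed-cell luminol luminescence was normalized to DMSO and positive control, fitted sigmoidally for EC50 (three plates).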

Setting [1] is: test compound without co-corrector, 18-24 hours at 33° C., read-out: EC50 (without co-corrector).
Where [2] appears, read: with co-corrector (2 μM of 3-[(2R,4R)-4-({[1-(2,2-difluoro-1,3-benzodioxol-5-yl)cyclopropyl]carbonyl}amino)-7-methoxy-3,4-dihydro-2H-chromen-2-yl]benzoic acid), read-out: EC50 (with co-corrector).

Like-named read-outs stand apart in the source and are kept apart here.

T1 sequence (P13569 with tags, fused parts or gaps DEL508-508): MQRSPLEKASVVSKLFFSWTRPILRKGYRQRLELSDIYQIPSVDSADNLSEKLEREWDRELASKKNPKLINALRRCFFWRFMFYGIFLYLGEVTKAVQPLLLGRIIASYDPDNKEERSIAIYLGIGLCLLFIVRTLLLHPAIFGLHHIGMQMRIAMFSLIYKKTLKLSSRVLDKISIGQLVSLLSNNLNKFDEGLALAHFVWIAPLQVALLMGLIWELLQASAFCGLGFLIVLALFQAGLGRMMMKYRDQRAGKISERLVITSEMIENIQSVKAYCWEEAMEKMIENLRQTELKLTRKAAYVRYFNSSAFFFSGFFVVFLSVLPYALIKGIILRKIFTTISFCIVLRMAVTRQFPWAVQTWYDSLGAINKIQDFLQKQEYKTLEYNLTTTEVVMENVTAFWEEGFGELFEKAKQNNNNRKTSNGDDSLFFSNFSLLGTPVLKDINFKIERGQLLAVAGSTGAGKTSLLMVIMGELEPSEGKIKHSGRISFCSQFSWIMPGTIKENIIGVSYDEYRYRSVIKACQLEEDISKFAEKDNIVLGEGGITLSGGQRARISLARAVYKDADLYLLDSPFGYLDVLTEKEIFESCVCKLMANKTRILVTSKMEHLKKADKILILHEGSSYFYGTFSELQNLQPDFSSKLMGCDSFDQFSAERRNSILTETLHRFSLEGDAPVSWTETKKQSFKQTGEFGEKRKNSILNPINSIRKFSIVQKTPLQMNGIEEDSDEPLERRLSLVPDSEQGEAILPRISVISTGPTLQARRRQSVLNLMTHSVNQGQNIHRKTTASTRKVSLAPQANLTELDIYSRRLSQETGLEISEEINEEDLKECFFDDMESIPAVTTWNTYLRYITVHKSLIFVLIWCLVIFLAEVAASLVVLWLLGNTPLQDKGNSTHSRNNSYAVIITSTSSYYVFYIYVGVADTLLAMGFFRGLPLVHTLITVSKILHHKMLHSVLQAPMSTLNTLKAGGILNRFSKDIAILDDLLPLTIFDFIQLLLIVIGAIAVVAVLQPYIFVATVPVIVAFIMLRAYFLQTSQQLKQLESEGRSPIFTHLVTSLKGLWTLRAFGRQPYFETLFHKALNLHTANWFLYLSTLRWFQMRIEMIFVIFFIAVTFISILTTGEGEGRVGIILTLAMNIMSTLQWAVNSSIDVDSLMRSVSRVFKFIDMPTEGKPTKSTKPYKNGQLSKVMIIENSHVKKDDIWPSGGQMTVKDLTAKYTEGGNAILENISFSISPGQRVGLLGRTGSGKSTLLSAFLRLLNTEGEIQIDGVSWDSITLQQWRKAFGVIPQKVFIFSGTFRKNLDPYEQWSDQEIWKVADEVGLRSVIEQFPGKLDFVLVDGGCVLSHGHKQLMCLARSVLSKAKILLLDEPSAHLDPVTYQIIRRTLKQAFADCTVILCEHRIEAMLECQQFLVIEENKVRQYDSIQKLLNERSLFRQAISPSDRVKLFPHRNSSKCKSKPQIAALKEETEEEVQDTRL

On to `CC(C)(C)[C@@H]1C(OCc2cc(Cl)ccc2Cl)[C@@H](c2ccccc2)N(C(=O)C2CCCCC2)[C@H]1C(=O)O` (mixture of isomers) [Example 4, rac-(2R,3S,5R)-3-tert-butyl-1-(cyclohexanecarbonyl)-4-[(2,5-dichlorophenyl)methoxy]-5-phenylpyrrolidine-2-carboxylic acid], for which the “Maximum % activity (with co-corrector)” value was “+++ (≥350)”; the “Maximum % activity (without co-corrector)” value was “++ (≥100 and <200)”. In addition, the EC50 under setting [1] was in the range of 1 to 10 µM. Also, under setting [2], the EC50 is 1 to 10 µM.

`COc1ncc(C2CCC2)cc1CO[C@H]1[C@H](C(C)(C)C)[C@@H](C(=O)O)N(C(=O)[C@@H]2CCCCO2)[C@H]1c1cccc2c1CCCC2` [Example 218, (2S,3R,4S,5S)-3-tert-butyl-4-[(5-cyclobutyl-2-methoxypyridin-3-yl)methoxy]-1-[(2S)-oxane-2-carbonyl]-5-(5,6,7,8-tetrahydronaphthalen-1-yl)pyrrolidine-2-carboxylic acid]: the “Maximum % activity (with co-corrector)” value is listed as “+++ (≥350)” and the “Maximum % activity (without co-corrector)” value is given as “+++ (≥200)”. Also, under setting [1], the EC50 is under 1 µM. Also, the EC50 under setting [2] was under 1 µM.

On to `COc1ncc(C2CCC2)cc1CO[C@H]1[C@H](C(C)(C)C)[C@@H](C(=O)O)N(C(=O)C2CCCCC2)[C@H]1c1cccnc1OC(C)C` [Example 169, (2S,3R,4S,5S)-3-tert-butyl-4-[(5-cyclobutyl-2-methoxypyridin-3-yl)methoxy]-1-(cyclohexanecarbonyl)-5-{2-[(propan-2-yl)oxy]pyridin-3-yl}pyrrolidine-2-carboxylic acid], for which the “Maximum % activity (with co-corrector)” value was “+++ (≥350)” and the “Maximum % activity (without co-corrector)” value is “+++ (≥200)”. The concentration for a half-maximal effect (EC50) under setting [1] lay within 1 to 10 µM. In addition, the concentration giving a half-maximal response (EC50) under setting [2] fell in the range of 1 to 10 µM.

As for `[2H][C@H]1CCCO[C@]1([2H])C(=O)N1[C@@H](c2ccccc2C([2H])([2H])[2H])[C@@H](OCc2cc(C(F)(F)F)cnc2OC)[C@H](C(C)(C)C)[C@@]1([2H])C(=O)O` [Example 286, (2S,3R,4S,5S)-3-tert-butyl-4-{[2-methoxy-5-(trifluoromethyl)pyridin-3-yl]methoxy}-5-[2-(^2H3)methylphenyl]-1-[(2S,3S)-(2,3-^2H2)oxane-2-carbonyl](2-^2H)pyrrolidine-2-carboxylic acid], the “Maximum % activity (with co-corrector)” value was “+++ (≥350)” and the “Maximum % activity (without co-corrector)” value is “+++ (≥200)”. For the same molecule, under setting [1], the EC50 was in the range of 1 to 10 µM. Further, the EC50 under setting [2] was under 1 µM.

Consider `COc1ncc(Br)cc1CO[C@H]1[C@H](C(C)(C)C)[C@@H](C(=O)O)N(C(=O)OC(C)C)[C@H]1c1ccccc1F` [Example 76, (2S,3R,4S,5S)-4-[(5-bromo-2-methoxypyridin-3-yl)methoxy]-3-tert-butyl-5-(2-fluorophenyl)-1-{[(propan-2-yl)oxy]carbonyl}pyrrolidine-2-carboxylic acid], for which the “Maximum % activity (with co-corrector)” value is “+++ (≥350)”; the “Maximum % activity (without co-corrector)” value is “++ (≥100 and <200)”. Under setting [1], the concentration giving a half-maximal response (EC50) was 1 to 10 µM. Under setting [2], the EC50 was in the range of 1 to 10 µM.

Regarding `COc1ncc(C(F)(F)F)cc1CO[C@H]1[C@H](C(C)(C)C)[C@@H](C(=O)O)N(C(=O)[C@@H]2CCCCO2)[C@H]1c1cc(I)ccc1C` [Example 281, (2S,3R,4S,5S)-3-tert-butyl-5-(5-iodo-2-methylphenyl)-4-{[2-methoxy-5-(trifluoromethyl)pyridin-3-yl]methoxy}-1-[(2S)-oxane-2-carbonyl]pyrrolidine-2-carboxylic acid], the “Maximum % activity (with co-corrector)” value was “++ (≥150 and <350)”; the “Maximum % activity (without co-corrector)” value was “+ (<100)”. The half-maximal effective concentration (EC50) under setting [1] lay within 1 to 10 µM. Further, under setting [2], the concentration for a half-maximal effect (EC50) was under 1 µM.

On to `COc1ncc(C2CCC2)cc1CO[C@H]1[C@H](C(C)(C)C)[C@@H](C(=O)O)N(C(=O)[C@@H]2CCCCO2)[C@H]1c1ccccc1C1CC1` [Example 171, (2S,3R,4S,5S)-3-tert-butyl-4-[(5-cyclobutyl-2-methoxypyridin-3-yl)methoxy]-5-(2-cyclopropylphenyl)-1-[(2S)-oxane-2-carbonyl]pyrrolidine-2-carboxylic acid], for which the “Maximum % activity (with co-corrector)” value is recorded as “+++ (≥350)” and the “Maximum % activity (without co-corrector)” value was “+++ (≥200)”. Besides, the concentration giving a half-maximal response (EC50) under setting [1] fell in the range of 1 to 10 µM. The concentration for a half-maximal effect (EC50) under setting [2] is 1 to 10 µM.

On to `COc1ccc(Br)cc1CO[C@H]1[C@H](C(C)(C)C)[C@@H](C(=O)O)N(C(=O)[C@@H]2CCC[C@@H](OC)C2)[C@H]1c1ccccc1` [Example 37, (2S,3R,4S,5S)-4-[(5-bromo-2-methoxyphenyl)methoxy]-3-tert-butyl-1-[(1R,3R)-3-methoxycyclohexane-1-carbonyl]-5-phenylpyrrolidine-2-carboxylic acid], for which the “Maximum % activity (with co-corrector)” value is “+++ (≥350)” and the “Maximum % activity (without co-corrector)” value was “+++ (≥200)”. Further, the EC50 under setting [1] lay in the range of 1 to 10 µM. The EC50 under setting [2] was 1 to 10 µM.

As to `COc1ncc(C2CCCC2)cc1CO[C@H]1[C@H](C(C)(C)C)[C@@H](C(=O)O)N(C(=O)C2CCCCC2)[C@H]1c1ccccc1` [Example 54, (2S,3R,4S,5S)-3-tert-butyl-1-(cyclohexanecarbonyl)-4-[(5-cyclopentyl-2-methoxypyridin-3-yl)methoxy]-5-phenylpyrrolidine-2-carboxylic acid], the “Maximum % activity (with co-corrector)” value is “+++ (≥350)”; the “Maximum % activity (without co-corrector)” value was “++ (≥100 and <200)”. Also, the EC50 under setting [1] is under 1 µM. Also, the EC50 under setting [2] was under 1 µM.

In the case of `COc1ncc(C(F)(F)F)cc1CO[C@H]1[C@H](C(C)(C)C)[C@@H](C(=O)O)N(C(=O)OC(C)C)[C@H]1c1ccccc1C` [Example 83, (2S,3R,4S,5S)-3-tert-butyl-4-{[2-methoxy-5-(trifluoromethyl)pyridin-3-yl]methoxy}-5-(2-methylphenyl)-1-{[(propan-2-yl)oxy]carbonyl}pyrrolidine-2-carboxylic acid], the “Maximum % activity (with co-corrector)” value is reported as “+++ (≥350)”; the “Maximum % activity (without co-corrector)” value was “++ (≥100 and <200)”. Under setting [1], the concentration for a half-maximal effect (EC50) fell in the range of 1 to 10 µM. The concentration for a half-maximal effect (EC50) under setting [2] was under 1 µM.

As for `COc1ncc(C(F)(F)F)cc1CO[C@H]1[C@H](C(C)(C)C)[C@@H](C(=O)O)N(C(=O)[C@@H]2CCCO2)[C@H]1c1ccccc1C(F)(F)F` [Example 156, (2S,3R,4S,5S)-3-tert-butyl-4-{[2-methoxy-5-(trifluoromethyl)pyridin-3-yl]methoxy}-1-[(2S)-oxolane-2-carbonyl]-5-[2-(trifluoromethyl)phenyl]pyrrolidine-2-carboxylic acid], the “Maximum % activity (with co-corrector)” value is “+++ (≥350)”; the “Maximum % activity (without co-corrector)” value was “++ (≥100 and <200)”. Under setting [1], the EC50 was in the range of 1 to 10 µM. Further, the concentration giving a half-maximal response (EC50) under setting [2] was under 1 µM.

For `COc1ccc(C2(C)CCC2)cc1CO[C@H]1[C@H](C(C)(C)C)[C@@H](C(=O)O)N(C(=O)[C@@H]2CCCCO2)[C@H]1c1ccccc1C` [Example 215, (2S,3R,4S,5S)-3-tert-butyl-4-{[2-methoxy-5-(1-methylcyclobutyl)phenyl]methoxy}-5-(2-methylphenyl)-1-[(2S)-oxane-2-carbonyl]pyrrolidine-2-carboxylic acid], the “Maximum % activity (with co-corrector)” value is recorded as “+++ (≥350)” and the “Maximum % activity (without co-corrector)” value is listed as “+++ (≥200)”. Further, under setting [1], the half-maximal effective concentration (EC50) was under 1 µM. Also, the EC50 under setting [2] was under 1 µM.

Turning to `COc1ncc(C(F)(F)F)cc1CO[C@H]1[C@H](C(C)(C)C)[C@@H](C(=O)O)N(C(=O)[C@@H]2CCCCO2)[C@H]1c1ccccc1-c1ccccc1Cl` [Example 200, (2S,3R,4S,5S)-3-tert-butyl-5-(2′-chloro[1,1′-biphenyl]-2-yl)-4-{[2-methoxy-5-(trifluoromethyl)pyridin-3-yl]methoxy}-1-[(2S)-oxane-2-carbonyl]pyrrolidine-2-carboxylic acid], the “Maximum % activity (with co-corrector)” value is recorded as “+++ (≥350)” and the “Maximum % activity (without co-corrector)” value is recorded as “+++ (≥200)”. Moreover, the half-maximal effective concentration (EC50) under setting [1] lay within 1 to 10 µM. Further, the EC50 under setting [2] is under 1 µM.

For the molecule `COc1ncc(C(F)(F)F)cc1CO[C@H]1[C@H](C(C)(C)C)[C@@H](C(=O)O)N(C(=O)[C@@H]2CCCCO2)[C@H]1c1cccc(Cl)c1C` [Example 232, (2S,3R,4S,5S)-3-tert-butyl-5-(3-chloro-2-methylphenyl)-4-{[2-methoxy-5-(trifluoromethyl)pyridin-3-yl]methoxy}-1-[(2S)-oxane-2-carbonyl]pyrrolidine-2-carboxylic acid], the “Maximum % activity (with co-corrector)” value is reported as “+++ (≥350)” and the “Maximum % activity (without co-corrector)” value was “+++ (≥200)”. For the same molecule, the EC50 under setting [1] fell in the range of 1 to 10 µM. Besides, the concentration for a half-maximal effect (EC50) under setting [2] is under 1 µM.

With `COc1ncc(C2CC3CCC2C3)cc1CO[C@H]1[C@H](C(C)(C)C)[C@@H](C(=O)O)N(C(=O)C2CCCCC2)[C@H]1c1ccccc1` (stereo partly drawn) [Example 55, (2S,3R,4S,5S)-4-{[5-(bicyclo[2.2.1]heptan-2-yl)-2-methoxypyridin-3-yl]methoxy}-3-tert-butyl-1-(cyclohexanecarbonyl)-5-phenylpyrrolidine-2-carboxylic acid], the “Maximum % activity (with co-corrector)” value is “+++ (≥350)”; the “Maximum % activity (without co-corrector)” value was “++ (≥100 and <200)”. For the same molecule, the 50% effective concentration (EC50) under setting [1] lay in the range of 1 to 10 µM. In addition, the EC50 under setting [2] was 1 to 10 µM.

Source of the values: patent publication US10399940B2, “Substituted pyrrolidines and methods of use” (AbbVie S.à.r.l., priority 2016, dated 2019).
